Tests used:
GPR176 [1] = target: T1, GPR176 (Homo sapiens, UniProt Q14439); assay: Real-time receptor internalization (AUC), peptide validation; assay type: cell-based; details: Emax and pEC50 n.d., n = 2
T1 construct: host or cells: HTLA cells (HEK293-derived)
T1 sequence (Q14439 1-515): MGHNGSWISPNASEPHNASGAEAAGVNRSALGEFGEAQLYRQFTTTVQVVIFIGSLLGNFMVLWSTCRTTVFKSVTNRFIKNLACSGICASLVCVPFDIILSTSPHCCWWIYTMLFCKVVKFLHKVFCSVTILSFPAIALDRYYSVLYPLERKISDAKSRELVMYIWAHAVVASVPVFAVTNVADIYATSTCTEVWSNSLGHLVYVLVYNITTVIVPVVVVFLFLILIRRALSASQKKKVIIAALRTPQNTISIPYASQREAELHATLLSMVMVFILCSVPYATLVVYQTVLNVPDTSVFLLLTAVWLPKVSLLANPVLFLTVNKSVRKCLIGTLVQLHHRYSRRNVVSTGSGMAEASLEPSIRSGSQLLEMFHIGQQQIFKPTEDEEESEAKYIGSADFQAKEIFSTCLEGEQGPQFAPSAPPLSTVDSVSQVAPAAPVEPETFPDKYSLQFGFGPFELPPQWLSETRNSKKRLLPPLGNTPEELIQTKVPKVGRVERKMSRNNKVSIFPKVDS
Description: (§1) Supplement mmc7.xlsx, sheet "Peptide validation data" | column: Comment

GPR176 [2] = target: T1, GPR176; assay: Dynamic mass redistribution (DMR, AUC), peptide validation; assay type: cell-based; details: Emax and pEC50 n.d., n = 2
Description: as §1

[3] = test system: 120 GPCR targets, including all available orphan receptors and 27 known class A peptide receptors; assay: Peptide library screen, β-arrestin recruitment (Tango, fold change, 10 μM); assay type: cell-based, human; details: Tango; receptor(s) at which the known library peptide was active, among its known GPCR target(s); validated pairings
Method in brief: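 HTLA cells (HEK293 with tTA-dependent luciferase and β-arrestin2-TEV) transiently transfected with Tango GPCR constructs, then stimulated overnight with 10 μM peptides in 1% dFBS medium. Luciferase luminescence read after 15–20 min Bright-Glo incubation at room temperature.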

GPR176 [4] = target: T1, GPR176; assay: β-arrestin recruitment (Tango), indicative pairing; assay type: cell-based; details: mean, n = 3
GPR176 [5] = target: T1, GPR176; assay: Real-time receptor internalization, validation; assay type: cell-based
Description: as §1

GPR176 [6] = target: T1, GPR176; assay: Dynamic mass redistribution (DMR), validation; assay type: cell-based
Description: as §1

GPR139 [7] = target: T2, GPR139 (Homo sapiens, UniProt Q6DWJ6); assay: IP1 accumulation; assay type: cell-based; details: mean, SEM and n
T2 construct: hIL-2Ra signal peptide (N); expressed in transfected cells
T2 sequence (Q6DWJ6 2-353 limits assumed): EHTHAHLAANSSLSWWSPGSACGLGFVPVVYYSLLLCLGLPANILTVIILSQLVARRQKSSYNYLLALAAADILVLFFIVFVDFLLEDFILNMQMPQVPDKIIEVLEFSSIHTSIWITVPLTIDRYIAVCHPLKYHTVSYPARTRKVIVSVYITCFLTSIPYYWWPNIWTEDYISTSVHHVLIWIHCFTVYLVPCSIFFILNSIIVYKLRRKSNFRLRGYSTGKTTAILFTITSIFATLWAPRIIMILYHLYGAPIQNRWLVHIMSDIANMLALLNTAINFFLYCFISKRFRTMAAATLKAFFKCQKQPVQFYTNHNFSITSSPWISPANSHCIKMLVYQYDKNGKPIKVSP
Description: Supplement mmc7.xlsx, sheet "Peptide validation data" | column: Emax; pEC50

GPR139 [8] = target: T2, GPR139; assay: Repeat of proposed literature pairing (mass redistribution and/or internalization); assay type: cell-based; details: GPR139
Description: DMR assays provide a single integrated readout of ligand-dependent cellular response, utilizing an optical biosensor in specialized microplates to detect wavelength shifts of reflected light as it passes through the biosensor and the lower portion of the cell (∼150-200 nm). As a signal pathway agnostic approach, DMR assays are well-suited to the study of GPCRs ([Fang et al., 2008], [Schröder et al., 2011]). The mass redistribution response (Δ picometer (pm)) likely reflects a number of intracellular events, including cytoskeletal rearrangement, protein trafficking and receptor internalization. Orphan receptor-expressing cells were gently washed twice with assay buffer (HBSS with 1 mM CaCl2, 1 mM MgCl2, 20 mM HEPES, 0.01% pluronic F-68, pH 7.4) containing 0.1% DMSO and cells were equilibrated for 90 min at 22°C in the EPIC Benchtop (BT) System (Corning) to establish a stable DMR signal. After 3-5 min baseline recordings, peptides (10 μM) were added in duplicate wells using an electronic 384-channel Viaflo pipette (Integra Biosciences, Switzerland) and DMR responses were measured for 60 min at 22°C. 100 nM norepinephrine was included as an internal assay control to assess the cellular DMR response via endogenously-expressed adrenoceptors in the TREx 293 cells. Real-time data were processed using the BT to column converter MS-Excel macro (Corning) and analyzed in GraphPad Prism 7.0. DMR recordings in peptide screening experiments were buffer and solvent corrected and the area under the curve (AUC) was quantified. For subsequent validation experiments, peptides were diluted in assay buffer containing 0.1% DMSO and DMR assays were performed as above. […] Data represent mean ± standard error of the mean (SEM) from at least 3 biologically independent experiments.
A TR-FRET real-time internalization assay was used to examine peptide-dependent changes in orphan receptor localization as described previously ([Foster and Bräuner-Osborne, 2018]). Surface-expressed SNAP-tagged receptors were labeled with a cell-impermeable luminescent terbium cryptate (100 nM SNAP Lumi4-Tb; Cisbio, France) for 1 hr at 37°C. Cells were washed to remove excess terbium and incubated with fluorescein-O-acetic acid (100 μM; Sigma Aldrich) for 5 min at 37°C. Peptides were added as for DMR assays, and internalization responses were recorded for 60 min at 37°C using an EnVision 2104 Multimode plate reader (PerkinElmer). 100 nM GLP-1 was used as a positive control for SNAP-GLP1R internalization. Real-time internalization responses were calculated based on TR-FRET (excitation 340 nm; emission 520 nm and 615 nm), and were expressed as the ratio between donor (terbium) and acceptor (fluorescein) emission. For peptide screening analysis (both DMR and internalization assays), we calculated the area under the curve from the real-time traces. […] Validation experiments for receptor internalization were performed as above. Internalization data was processed in MS-Excel and area under the curve was used to generate concentration-response curves using GraphPad Prism 7.0. Data represent mean ± standard error of the mean (SEM) from at least 3 biologically independent experiments.

GPR139 [9] = target: T2, GPR139; assay: β-arrestin recruitment (Tango), validation; assay type: cell-based
Description: as §1

Question: With “SYSMEHFRWGKPVGKKRRPVKVYPNGAEDESAEAFPLEF [Peptide 208]” as the molecule, how does the “Comment, Internalization (AUC)” value (GPR176 [1]) read?
Answer: Its value is “No response”.

Question: And the “Comment, DMR (AUC)” value (GPR176 [2])?
Answer: The value was “No response”.

Question: What about the “Active at: (activity in b-arrestin recruitment assays)” value [3] of the same molecule?
Answer: Its value is “MC4R”.

Question: And the “Emax, Tango (fold over basal)” value (GPR176 [4])?
Answer: The value was 8.0 fold over basal.

Question: And the “pEC50, Tango (fold over basal)” value (GPR176 [4])?
Answer: Its value is 5.06.

Question: Which results are given for RSVNPYLQ [SCG5 (181-188)]?
Answer: Comment on response, Internalization (AUC); Emax and pEC50 n.d. (GPR176 [5]): No response; Comment on response, DMR (AUC); Emax and pEC50 n.d. (GPR176 [6]): No response

Question: Which results are given for `CSCC[C@H](NC(=O)[C@H](CO)NC(=O)[C@H](Cc1ccc(O)cc1)NC(=O)[C@@H](N)CO)C(=O)N[C@@H](CCC(=O)O)C(=O)N[C@@H](Cc1c[nH]cn1)C(=O)N[C@@H](Cc1ccccc1)C(=O)N[C@@H](CCCNC(=N)N)C(=O)N[C@@H](Cc1c[nH]c2ccccc12)C(=O)NCC(=O)N[C@@H](CCCCN)C(=O)N1CCC[C@H]1C(=O)N[C@H](C(N)=O)C(C)C` [Alpha-MSH (des-acetyl MSH)]?
Answer: Emax, IP1 (GPR139 [7]): 60.8 nM; EC50 (GPR139 [7]; read-out: pEC50, IP1 (converted)): 10 µM; Emax, Internalization (AUC) (GPR139 [8]; data from single experiment (n = 1)): 2.9; Emax, DMR (peak) (GPR139 [8]; mean, SEM and n): 39.5; EC50 (GPR139 [8]; mean, SEM and n, read-out: pEC50, DMR (peak) (converted)): 36.3 nM; Comment on response, Tango (fold over basal); Emax and pEC50 n.d. (GPR139 [9]): No response

Reference: PMC6838683, “Discovery of Human Signaling Systems: Pairing Peptides to G Protein-Coupled Receptors” (Cell, 2019)
